Measured values taken from patent US20040142881A1, “Novel immunosuppressive agent” (TOYO SUISAN KAISHA, LTD., priority 2001, published 2004).

System: responder cells (T lymphocytes)
Test: Mixed lymphocytes reaction ([3H]-thymidine uptake of responder cells)
Format: cell-based, human
Conditions: test substance at 2.5, 5, 10, 25 μg/mL (Nos. 1-6) or 5, 10, 25 μg/mL (Nos. 7-12); 4 days culture with mitomycin C-treated stimulator cells; FIGS. 1 and 2
Protocol: Mixed lymphocytes reaction
Lymphocytes serving as stimulator cells and responder cells were prepared from blood taken from individual healthy persons.
The responder cells were further separated from the lymphocyte cells to give T lymphocytes alone.
No treatment was applied to the responder cells. 10^6/mL of the stimulator cells were treated with 10 μg/mL of mitomycin C to stop the cell growth.
Subsequently, the responder cells were inoculated in a 96-well plate, at a rate of 10^5 cells per well, and then test substances (compound Nos. 1 to 12 listed in Table 1 below) were added to a predetermined concentration. The reaction mixture was cultured at 37° C. for one hour. Thereafter, the stimulator cells were added at a rate of 10^5 cells per well. The mixture was cultured in a CO2 incubator at 37° C. for 4 days. After the incubation, the proliferation ability of the responder cells was quantified as follows. First, [^3H]-thymidine was added to the responder cells and incorporated into the nucleus of the cells by culturing the cells for 16 hours. Then, the amount of [^3H]-thymidine uptake into the cells was determined by a scintillation counter.

CCCCCCCCCCCCCCCCCC(=O)OCC(CO[C@@H]1O[C@H](CS(=O)(=O)[O-])[C@H](O)[C@H](O)[C@H]1O)OC(=O)CCCCCCCCCCCCCCCCC.[Na+] (stereo partly drawn) [compound No. 12, 3-0-(6-deoxy-6-sulfo-β-D-galactopyranosyl)-1,2-di-0-stearoyl-glycerol sodium salt] was tested, and the “immunosuppressive activity (amount of [3H]-thymidine uptake; the lower the uptake, the higher the activity)” value was “not confirmed”.
